*1 amine or outer side, *2 acyl side, *3 side chain or, on linkers, in order; H or OH if unused. Where a SMILES comes first, the peptide text is derived from it. Bridges are numbered along the chain shown (N, C = ends). [ ]: non-standard residue; d: D form. The star is where a group is joined. DOTA = O=C(O)CN1CCN(CC(=O)O)CCN(CC(=O)*)CCN(CC(=O)O)CC1; Pro(cis-4-F) = O=C(O)[C@@H]1C[C@H](F)CN1; Glutaryl = O=C(CCCC(=O)[*:2])[*:1]; Hyp = O=C(O)[C@@H]1C[C@@H](O)CN1; hPhe = N[C@@H](CCc1ccccc1)C(=O)O; tBuAla = CC(C)(C)C[C@H](N)C(=O)O; Pentanoyl(4-Me) = CC(C)CCC(=O)*; 2Thi = N[C@@H](Cc1cccs1)C(=O)O; Cha = N[C@@H](CC1CCCCC1)C(=O)O; Cit = NC(=O)NCCC[C@H](N)C(=O)O; NMeL = CN[C@@H](CC(C)C)C(=O)O; Butoxycarbonyl = CCCCOC(=O)*; hSer = N[C@@H](CCO)C(=O)O; Nva = CCC[C@H](N)C(=O)O; Hexanoyl = CCCCCC(=O)*; Pentanoyl = CCCCC(=O)*; Bz = O=C(c1ccccc1)*
Experiments:
[1] = target: T1, human uPAR (uPAR-Fc) (Homo sapiens, UniProt Q03405); experiment: Surface plasmon resonance (SPR) assay, single cycle kinetics; format: binding; settings: pKD category for uPAR SPR activity assay; uPAR-Fc on Protein A-Chip, single cycle kinetics, 25°C; read-out: pKD CAT (converted)
T1 construct: comprising amino acids Leu23-Arg303 according to UniProt entry Q03405.1; purchased R&D Systems 10378-UK-100
How it was run: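 uPAR-Fc (Leu23-Arg303 extracellular domains, human IgG1 Fc) captured on Protein A chip to ~2000 RU; single-cycle kinetics at 25°C in HEPES running buffer pH 7.4 with 0.1% DMSO. KD from double-referenced sensorgrams fitted to 1:1 Langmuir model, reported as pKD.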

[2] = target: T2, uPAR-expressing HEC-265 human endometrial adenocarcinoma cells (Homo sapiens, UniProt Q03405); experiment: Competitive FACS binding assay; settings: pIC50 category of FACS binding
T2 construct: Cell surface uPAR-expressing HEC-265 human endometrial adenocarcinoma cells; host or cells: HEC-265
How it was run: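 HEC-265 cells incubated 1 h at 4 °C with 10 nM biotinylated uPAR peptide tracer plus increasing test compound, then stained with APC-streptavidin on ice. Median APC fluorescence by flow cytometry; 4PL fit gives pIC50.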

T2 sequence (Q03405 23-335): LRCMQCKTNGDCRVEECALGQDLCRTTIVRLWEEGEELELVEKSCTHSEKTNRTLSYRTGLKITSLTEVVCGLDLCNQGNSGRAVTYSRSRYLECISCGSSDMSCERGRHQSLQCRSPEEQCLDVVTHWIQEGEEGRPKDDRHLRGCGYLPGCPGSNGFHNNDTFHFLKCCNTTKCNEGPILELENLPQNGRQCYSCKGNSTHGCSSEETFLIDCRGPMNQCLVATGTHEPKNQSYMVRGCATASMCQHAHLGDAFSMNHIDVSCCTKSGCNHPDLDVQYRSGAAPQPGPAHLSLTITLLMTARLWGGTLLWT
T1 sequence (Q03405 23-303): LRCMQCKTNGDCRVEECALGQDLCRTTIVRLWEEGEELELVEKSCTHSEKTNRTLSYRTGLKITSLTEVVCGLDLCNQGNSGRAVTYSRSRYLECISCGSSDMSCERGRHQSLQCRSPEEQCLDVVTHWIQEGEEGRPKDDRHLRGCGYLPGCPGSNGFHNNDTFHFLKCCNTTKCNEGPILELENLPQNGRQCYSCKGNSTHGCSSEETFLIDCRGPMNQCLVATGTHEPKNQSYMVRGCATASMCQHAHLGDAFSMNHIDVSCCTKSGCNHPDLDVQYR

| Structure (SMILES) | Kd [1] [nM] | IC50 [2] [nM] |
| --- | --- | --- |
| CCC[C@@H]1NC(=O)[C@H]([C@@H](C)CC)NC(=O)[C@@H]2C[C@@H](O)CN2C(=O)[C@@H]2CCCN2C(=O)[C@H](Cc2ccccc2)NC(=O)[C@H](Cc2ccc(O)cc2)NC(=O)[C@H](CCC(N)=O)NC(=O)[C@H](CCCNC(=N)N)NC(=O)[C@@H](NC(=O)c2ccccc2)CSSC[C@@H](C(N)=O)NC1=O [UPAR-356, Bz-[Cys-Arg-Gln-Tyr-Phe-Pro-Hyp-Ile-Nva-Cys]-NH2] (Bz-CRQYFP[Hyp]I[Nva]C-NH2; disulfide 1-10) | < 1.58 | ≤ 10 |
| CC[C@H](C)[C@@H]1NC(=O)[C@@H](CCCNC(=N)N)NC(=O)[C@@H]2CCCN2C(=O)[C@H](Cc2ccccc2)NC(=O)[C@H](Cc2ccc(O)cc2)NC(=O)[C@H](CCC(N)=O)NC(=O)[C@H](CCCNC(N)=O)NC(=O)[C@@H](NC(=O)CCC(C)C)CSSC[C@@H](C(N)=O)NC(=O)[C@H](CC(C)C)NC1=O [UPAR-357, iHex-[Cys-Cit-Gln-Tyr-Phe-Pro-arg-Ile-Leu-Cys]-NH2] ({Pentanoyl(4-Me)}-C[Cit]QYFP[dR]ILC-NH2; disulfide 1-10) | 1.58 to 10 | ≤ 10 |
| CCCCOC(=O)N[C@H]1CSSC[C@@H](C(N)=O)NC(=O)[C@H](CCC)NC(=O)[C@H]([C@@H](C)CC)NC(=O)[C@@H]2C[C@@H](O)CN2C(=O)[C@@H]2C[C@H](F)CN2C(=O)[C@H](Cc2ccccc2)NC(=O)[C@H](Cc2ccc(O)cc2)NC(=O)[C@H](CCC(N)=O)NC(=O)[C@H]([C@@H](C)O)NC1=O [UPAR-358, Butoc-[Cys-Thr-Gln-Tyr-Phe-4Cfp-Hyp-Ile-Nva-Cys]-NH2] (Butoxycarbonyl-CTQYF[Pro(cis-4-F)][Hyp]I[Nva]C-NH2; disulfide 1-10) | < 1.58 | ≤ 10 |
| CC[C@H](C)[C@@H]1NC(=O)[C@@H](C)NC(=O)[C@@H]2CCCN2C(=O)[C@H](Cc2ccccc2)NC(=O)[C@H](Cc2ccc(O)cc2)NC(=O)[C@H](CCC(N)=O)NC(=O)[C@H](CCCNC(N)=O)NC(=O)[C@@H](NC(=O)CCCC(=O)O)CSSC[C@@H](C(N)=O)NC(=O)[C@H](CC(C)C)NC1=O [UPAR-359, Glutar-[Cys-Cit-Gln-Tyr-Phe-Pro-ala-Ile-Leu-Cys]-NH2] (Glutaryl-C[Cit]QYFP[dA]ILC-NH2; disulfide 1-10) | > 100 | ≥ 126 |
| CCCCC(=O)N[C@H]1CSSC[C@@H](C(N)=O)NC(=O)[C@H](CCC)NC(=O)[C@H]([C@@H](C)CC)NC(=O)[C@@H]2C[C@@H](O)CN2C(=O)[C@@H]2CCCN2C(=O)[C@H](Cc2cccs2)NC(=O)[C@H](Cc2ccc(O)cc2)NC(=O)[C@H](CCCCNC(=O)CN2CCN(CC(=O)O)CCN(CC(=O)O)CCN(CC(=O)O)CC2)NC(=O)[C@H](CCCNC(N)=O)NC1=O [UPAR-360, Pent-[Cys-Cit-Lys(DOTA)-Tyr-Thi-Pro-Hyp-Ile-Nva-Cys]-NH2] (Pentanoyl-C[Cit]K(DOTA)Y[2Thi]P[Hyp]I[Nva]C-NH2; disulfide 1-10) | < 1.58 | ≤ 10 |
| CCCCC(=O)N[C@H]1CSSC[C@@H](C(N)=O)NC(=O)[C@H](CCC)NC(=O)[C@H]([C@@H](C)CC)NC(=O)[C@@H]2C[C@@H](O)CN2C(=O)[C@@H]2CCCN2C(=O)[C@H](Cc2ccccc2)NC(=O)[C@H](Cc2ccc(O)cc2)NC(=O)[C@H](CCC(N)=O)NC(=O)[C@@H]2CCCN2C1=O [UPAR-361, Pent-[Cys-Pro-Gln-Tyr-Phe-Pro-Hyp-Ile-Nva-Cys]-NH2] (Pentanoyl-CPQYFP[Hyp]I[Nva]C-NH2; disulfide 1-10) | < 1.58 | ≤ 10 |
| CCCCC(=O)N[C@H]1CSSC[C@@H](C(N)=O)NC(=O)[C@H](CC(C)C)NC(=O)[C@H]([C@@H](C)CC)NC(=O)[C@@H](C)NC(=O)[C@@H]2CCCN2C(=O)[C@H](Cc2ccccc2)NC(=O)[C@H](Cc2ccc(O)cc2)NC(=O)[C@H](CCC(N)=O)NC(=O)[C@H](CCCNC(N)=O)NC1=O [UPAR-362, Pent-[Cys-Cit-Gln-Tyr-Phe-Pro-ala-Ile-Leu-Cys]-NH2] (Pentanoyl-C[Cit]QYFP[dA]ILC-NH2; disulfide 1-10) | < 1.58 | ≤ 10 |
| CCCCCC(=O)N[C@@H](CC(=O)O)C(=O)N[C@@H](CC(C)C)C(=O)N[C@H]1CSSC[C@@H](C(N)=O)NC(=O)[C@H](CC(C)C)NC(=O)[C@H]([C@@H](C)CC)NC(=O)[C@H](C)NC(=O)[C@@H]2CCCN2C(=O)[C@H](Cc2ccccc2)NC(=O)[C@H](Cc2ccc(O)cc2)NC(=O)[C@H](CCSC)NC(=O)[C@H](CCCNC(=N)N)NC1=O [UPAR-363, Hex-Asp-Leu-[Cys-Arg-Met-Tyr-Phe-Pro-Ala-Ile-Leu-Cys]-NH2] (Hexanoyl-DLCRMYFPAILC-NH2; disulfide 3-12) | < 1.58 | ≤ 10 |
| CCCCC(=O)N[C@H]1CSSC[C@@H](C(N)=O)NC(=O)[C@H](CCC)NC(=O)[C@H]([C@@H](C)CC)NC(=O)[C@@H]2C[C@@H](O)CN2C(=O)[C@@H]2C[C@H](F)CN2C(=O)[C@H](Cc2ccccc2)NC(=O)[C@H](Cc2ccc(O)cc2)NC(=O)[C@H](CCCCNC(=O)CN2CCN(CC(=O)O)CCN(CC(=O)O)CCN(CC(=O)O)CC2)NC(=O)[C@H](CCCNC(N)=O)NC1=O [UPAR-365, Pent-[Cys-Cit-Lys(DOTA)-Tyr-Phe-4Cfp-Hyp-Ile-Nva-Cys]-NH2] (Pentanoyl-C[Cit]K(DOTA)YF[Pro(cis-4-F)][Hyp]I[Nva]C-NH2; disulfide 1-10) | < 1.58 | ≤ 10 |
| CCCCC(=O)N[C@H]1CSSC[C@@H](C(N)=O)NC(=O)[C@H](CCC)NC(=O)[C@H]([C@@H](C)CC)NC(=O)[C@@H]2C[C@@H](O)CN2C(=O)[C@@H]2CCCN2C(=O)[C@H](Cc2ccccc2)NC(=O)[C@H](CCc2ccccc2)NC(=O)[C@H](CCC(N)=O)NC(=O)[C@H](CCCNC(=N)N)NC1=O [UPAR-366, Pent-[Cys-Arg-Gln-Hfe-Phe-Pro-Hyp-Ile-Nva-Cys]-NH2] (Pentanoyl-CRQ[hPhe]FP[Hyp]I[Nva]C-NH2; disulfide 1-10) | 10 to 100 | 12.6 to 31.6 |
| CC[C@H](C)[C@@H]1NC(=O)[C@@H](CCCCNC(=O)CN2CCN(CC(=O)O)CCN(CC(=O)O)CCN(CC(=O)O)CC2)NC(=O)[C@@H]2CCCN2C(=O)[C@H](Cc2ccccc2)NC(=O)[C@H](Cc2ccc(O)cc2)NC(=O)[C@H](CCC(N)=O)NC(=O)[C@H](CCCNC(=N)N)NC(=O)[C@@H](NC(=O)CCC(C)C)CSSC[C@@H](C(N)=O)NC(=O)[C@H](CC(C)C)NC1=O [UPAR-367, iHex-[Cys-Arg-Gln-Tyr-Phe-Pro-lys(DOTA)-Ile-Leu-Cys]-NH2] ({Pentanoyl(4-Me)}-CRQYFP[dK](DOTA)ILC-NH2; disulfide 1-10) | 10 to 100 | ≤ 10 |
| CCCCOC(=O)N[C@H]1CSSC[C@@H](C(N)=O)NC(=O)[C@H](CCO)NC(=O)[C@H]([C@@H](C)CC)NC(=O)[C@@H]2C[C@@H](O)CN2C(=O)[C@@H]2C[C@H](F)CN2C(=O)[C@H](Cc2ccccc2)NC(=O)[C@H](Cc2ccc(O)cc2)NC(=O)[C@H](CCCCNC(=O)CN2CCN(CC(=O)O)CCN(CC(=O)O)CCN(CC(=O)O)CC2)NC(=O)[C@H]([C@@H](C)O)NC1=O [UPAR-368, Butoc-[Cys-Thr-Lys(DOTA)-Tyr-Phe-4Cfp-Hyp-Ile-Hse-Cys]-NH2] (Butoxycarbonyl-CTK(DOTA)YF[Pro(cis-4-F)][Hyp]I[hSer]C-NH2; disulfide 1-10) | 10 to 100 | ≤ 10 |
| CCCCC(=O)N[C@H]1CSSC[C@@H](C(N)=O)NC(=O)[C@H](CCC)NC(=O)[C@H](CC(C)(C)C)NC(=O)[C@@H]2C[C@@H](O)CN2C(=O)[C@@H]2CCCN2C(=O)[C@H](Cc2ccccc2)NC(=O)[C@H](Cc2ccc(O)cc2)NC(=O)[C@H](CCC(N)=O)NC(=O)[C@H](CCCNC(=N)N)NC1=O [UPAR-370, Pent-[Cys-Arg-Gln-Tyr-Phe-Pro-Hyp-Npg-Nva-Cys]-NH2] (Pentanoyl-CRQYFP[Hyp][tBuAla][Nva]C-NH2; disulfide 1-10) | < 1.58 | ≤ 10 |
| CC[C@H](C)[C@@H]1NC(=O)[C@@H]2C[C@@H](O)CN2C(=O)[C@@H]2CCCN2C(=O)[C@H](Cc2ccccc2)NC(=O)[C@H](Cc2ccc(O)cc2)NC(=O)[C@H](CCC(N)=O)NC(=O)[C@H](CCCNC(N)=O)NC(=O)[C@@H](NC(=O)[C@H](CC(C)C)NC(=O)CN2CCN(CC(=O)O)CCN(CC(=O)O)CCN(CC(=O)O)CC2)CSSC[C@@H](C(N)=O)NC(=O)[C@H](CC(C)C)N(C)C1=O [UPAR-371, DOTA-Leu-[Cys-Cit-Gln-Tyr-Phe-Pro-Hyp-Ile-Nml-Cys]-NH2] ({DOTA}-LC[Cit]QYFP[Hyp]I[NMeL]C-NH2; disulfide 2-11) | > 100 | ≥ 126 |
| CCC[C@@H]1NC(=O)[C@H]([C@@H](C)CC)NC(=O)[C@@H]2C[C@@H](O)CN2C(=O)[C@@H]2CCCN2C(=O)[C@H](Cc2ccccc2)NC(=O)[C@H](Cc2ccc(O)cc2)NC(=O)[C@H](CCC(N)=O)NC(=O)[C@H](CCCNC(=N)N)NC(=O)[C@@H](NC(=O)[C@H](CC2CCCCC2)NC(C)=O)CSSC[C@@H](C(N)=O)NC1=O [UPAR-372, Ac-Cha-[Cys-Arg-Gln-Tyr-Phe-Pro-Hyp-Ile-Nva-Cys]-NH2] (Ac-[Cha]CRQYFP[Hyp]I[Nva]C-NH2; disulfide 2-11) | < 1.58 | ≤ 10 |
